Measurements from ChEMBL document CHEMBL6121016, “Design, Synthesis, and Biological Evaluation of 1,3,4-Thiadiazole Derivatives as Novel Potent Peptide Deformylase Inhibitors for Combating Drug-Resistant Gram-Positive and -Negative Bacteria” (J Med Chem, 2025).
Converted amounts (≈) assume the structure as drawn. The source made the active and inactive calls. The rule behind the calls is not given here.

Key:
Acinetobacter baumannii [1] = assay: Antibacterial activity against Acinetobacter baumannii Bio 69680 after 16 to 18 hrs by broth microdilution method; type: functional; settings: time 16-18 hrs
Staphylococcus aureus = assay: Antibacterial activity against methicillin-susceptible Staphylococcus aureus ATCC 25923 after 16 to 18 hrs by broth microdilution method; type: functional; settings: time 16-18 hrs
Acinetobacter baumannii [2] = assay: Bactericidal activity against drug-resistant Acinetobacter baumannii assessed as bacteriostatic efficiency at 2 microg/mL measured within 24 hrs by time killing analysis relative to control; type: functional, organism-based; settings: dose 2.0 µg/ml
Acinetobacter baumannii [3] = assay: Antibacterial activity against Acinetobacter baumannii Bio 53250 after 16 to 18 hrs by broth microdilution method; type: functional; settings: time 16-18 hrs
Acinetobacter baumannii [4] = assay: Antibacterial activity against Acinetobacter baumannii Bio 120982 after 16 to 18 hrs by broth microdilution method; type: functional; settings: time 16-18 hrs
Escherichia coli [5] = assay: Antibacterial activity against Escherichia coli ATCC 25922 after 16 to 18 hrs by broth microdilution method; type: functional; settings: time 16-18 hrs
Cell membrane = assay: Induction of cell membrane disruption in Acinetobacter baumannii assessed as outer membrane integrity by NucGreen/EthD-III costain fluorescent assay; type: subcellular
Peptide deformylase = biological target: T1, Peptide deformylase (Staphylococcus aureus, UniProt P68826); assay: Inhibition of Staphylococcus aureus PDF-Ni assessed as enzyme activity incubated for 30 min by fluorescamine method
T1 sequence (P68826 whole entry): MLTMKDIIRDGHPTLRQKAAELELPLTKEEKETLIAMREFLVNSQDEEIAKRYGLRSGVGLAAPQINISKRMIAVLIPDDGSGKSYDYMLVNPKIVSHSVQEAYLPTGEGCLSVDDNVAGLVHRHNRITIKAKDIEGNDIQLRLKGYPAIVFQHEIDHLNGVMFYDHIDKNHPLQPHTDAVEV

[6] = Acute toxicity in KM mouse infected with drug-resistant Acinetobacter baumannii assessed as pathological changes in liver at 40 mg/kg by HE staining based analysis; type: organism-based; settings: in vivo
[7] = Acute toxicity in normal mouse assessed as aberrant behaviors at 200 mg/kg, iv observed for 14 days; type: organism-based; settings: in vivo, 336 h, time 14 day
Escherichia coli [8] = assay: Antibacterial activity against Escherichia coli ATCC 10661 after 16 to 18 hrs by broth microdilution method; type: functional; settings: time 16-18 hrs

In the case of `CCCC[C@H](CN(O)C=O)C(=O)N1CCC[C@H]1c1nnc(-c2cccs2)s1`, the MIC (Acinetobacter baumannii [1]) is reported as 4 µg/mL (≈ 9.79 µM), the MIC (Staphylococcus aureus) is reported as 0.25 µg/mL (≈ 0.612 µM) and the Activity (Acinetobacter baumannii [2]) is reported as “Active”. The MIC (Acinetobacter baumannii [3]) was 4 µg/mL (≈ 9.79 µM), the MIC (Acinetobacter baumannii [4]) was 4 µg/mL (≈ 9.79 µM) and the MIC (Escherichia coli [5]) was 2 µg/mL (≈ 4.9 µM). For the same compound, the Activity (Cell membrane) was “Active”, the IC50 (Peptide deformylase) was 2.5 nM and the Activity [6] was “Non-toxic”. The Activity [7] was “Non-toxic” and the MIC (Escherichia coli [8]) was 4 µg/mL (≈ 9.79 µM).
